Measurements reported in ChEMBL document CHEMBL1201862, “PubChem BioAssay data set” (2004).
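Following 48 hours of exposure in 96-well plates, responses at five concentrations were used to interpolate endpoints linearly. The concentration for 50% growth inhibition is given as GI50.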 Calls of active or inactive are those of the source. No stated cut-off is given here; in the data, active = GI50 up to about 1.1 µM and inactive = higher.

What was measured:
Assay in all cases: inhibition of tumour cell growth, NCI panel, 48 h
[1] = test system: SK-OV-3
[2] = test system: NCI-H226
[3] = test system: 786-0
[4] = test system: U-251
[5] = test system: T47D
[6] = test system: UO-31
[7] = test system: DU-145
[8] = test system: EKVX
[9] = test system: LOX IMVI
[10] = test system: MCF7
[11] = test system: HCT-15
[12] = test system: NCI-H460
[13] = test system: SF-539
[14] = test system: CAKI-1
[15] = test system: IGROV-1
[16] = test system: MDA-N
[17] = test system: SW-620
[18] = test system: HOP-92
[19] = test system: MOLT-4
[20] = test system: SR

Row | Structure (SMILES) | GI50 [1] | GI50 [2] | GI50 [3] | GI50 [4] | GI50 [5] | GI50 [6] | GI50 [7] | GI50 [8] | GI50 [9] | GI50 [10] | GI50 [11] [µM] | GI50 [12] | GI50 [13] | GI50 [14] | GI50 [15] | GI50 [16] | GI50 [17] | GI50 [18] | GI50 [19] | GI50 [20]
1 | CC(C)=CCC[C@@H](C)c1c2nc3ccccc3[nH]c-2c(C)c(=O)c1O | 2.15 µM (inactive) | 1.4 µM (inactive) | 1.75 µM (inactive) | 1.6 µM (inactive) | 1.91 µM (inactive) | 0.714 µM (active) | 1.61 µM (inactive) | 2.7 µM (inactive) | 1.75 µM (inactive) | 2.18 µM (inactive) | 0.236 | 0.671 µM (active) | 2.08 µM (inactive) | 1.14 µM (inactive) | 2.07 µM (inactive) | 2.09 µM (inactive) | 3.13 µM (inactive) | 1.41 µM (inactive) | 1.44 µM (inactive) | 3.41 µM (inactive)
2 | O=c1[nH]nc(-c2ccccc2)n1/N=C/c1ccccc1O | 22.9 µM (inactive) | > 100 µM (inactive) | 29.2 µM (inactive) | 41.6 µM (inactive) | > 100 µM (inactive) | > 100 µM (inactive) | > 100 µM (inactive) | 67.9 µM (inactive) | > 100 µM (inactive) | > 100 µM (inactive) | > 100 | > 100 µM (inactive) | 78.2 µM (inactive) | > 100 µM (inactive) | 53 µM (inactive) | > 100 µM (inactive) | > 100 µM (inactive) | 67.3 µM (inactive) | > 100 µM (inactive) | > 100 µM (inactive)
